The text below walks through data of US20230357179A1, “RAF KINASE INHIBITORS AND METHODS OF USE THEREOF” (Deciphera Pharmaceuticals, LLC, priority 2021, published 2023).

pIC50: −log10 of the molar value.

One test concerns the target T1, A-Raf kinase (Homo sapiens, UniProt P10398, Y301D/Y302D).
T1 construct: purchased Sigma
As to the kind of experiment: Biochemical assay for A-Raf.1 (coupled pyruvate kinase/lactate dehydrogenase). As to conditions: read-out: ARAF.1 IC50. An outline of the steps: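 A-Raf (5.55 nM) phosphorylating 30.1 nM MEK with 1 mM ATP was monitored by pyruvate kinase/lactate dehydrogenase-coupled NADH oxidation at 340 nm for 6 h at 30° C, in pH 7.5 Tris buffer with 15 mM MgCl2, 1% DMSO. Rates from 4–5 h gave percent inhibition; IC50 by four-parameter fit.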

In a further test the target is T2, B-Raf kinase (Homo sapiens, UniProt P15056).
T2 construct: GST (N); purchased Sigma
T2 sequence (P15056 416-766): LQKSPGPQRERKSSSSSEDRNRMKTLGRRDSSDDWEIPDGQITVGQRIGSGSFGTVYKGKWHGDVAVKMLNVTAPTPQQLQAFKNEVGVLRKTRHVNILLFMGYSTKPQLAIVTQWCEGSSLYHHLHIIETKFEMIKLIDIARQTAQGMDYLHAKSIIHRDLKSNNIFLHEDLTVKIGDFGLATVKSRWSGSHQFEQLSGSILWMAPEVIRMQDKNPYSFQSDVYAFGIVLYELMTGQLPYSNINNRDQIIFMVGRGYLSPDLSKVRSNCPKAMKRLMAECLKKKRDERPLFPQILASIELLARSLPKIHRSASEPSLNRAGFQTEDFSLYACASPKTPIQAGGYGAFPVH
As to the kind of experiment: Biochemical assay for B-Raf.1 (coupled pyruvate kinase/lactate dehydrogenase). As to conditions: read-out: BRAF.1 IC50. The method, boiled down: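 NADH oxidation followed at 340 nm in a pyruvate kinase/lactate dehydrogenase-coupled assay with 0.13 nM B-Raf, 30.1 nM MEK substrate, 1 mM ATP, pH 7.5 Tris buffer, 1% DMSO. Monitored 6 h at 30 °C; rate taken from 4–5 h. IC50 from four-parameter sigmoidal fit.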

The test system of another test is H2405 cells. As to the kind of experiment: H2405 cell proliferation assay (1), resazurin, 96-well. Type of test: cell-based. To be noted: Homo sapiens, NCI-H2405, inhibition of cell proliferation. The method, boiled down: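 This is a resazurin viability readout (excitation 540 nm, emission 600 nm) taken 5-6 h after adding 440 μM resazurin solution, giving IC50 values.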

The subject of another test is WM3928 cells. Kind of test: WM3928 cell proliferation assay (1), resazurin, 96-well. Type of test: cell-based. To be noted: inhibition of cell proliferation. As for the experimental part:
WM3928 Cell Proliferation Assay (1)
WM3928 cells (#WM3928-01-0001) are obtained from Rockland Immunochemicals Inc (Gilbertsville, PA). Briefly, cells were grown in MCDB 153 medium (Sigma, #M7403, St. Louis, MO) supplemented with 20% Leibovitz's L-15 (ThermoFisher #11415-064, Waltham, MA), 2% heat inactivated fetal bovine serum (ThermoFisher, #A3840001, Waltham, MA), 5 μg/mL Insulin (Bovine Pancreas) (Sigma, #I0516, St. Louis, MO), 1.68 mM Calcium Chloride (Sigma, #C-34006, St. Louis, MO) and 1% Penicillin/Streptomycin/L-Glutamine (ThermoFisher #10378016, Waltham, MA) at 37° C., 5% CO2, and 95% humidity. Cells are expanded until reaching 70-95% confluency at which point they are subcultured or harvested for assay use. A serial dilution of test compound is dispensed into a 96-well black clear bottom plate in triplicate. Three thousand cells are added per well in 200 μL complete growth medium in the 96-well plate. Plates are incubated for 67-72 hours at 37° C., 5% CO2, and 95% humidity. At the end of the incubation, 40 μL of a 440 μM solution of resazurin (Sigma, #199303, St. Louis, MO) in PBS is added to each well of the plate and plates are incubated for an additional 6-7 hours at 37° C., 5% CO2, and 95% humidity. Plates are read on a Synergy2 or equivalent reader (Biotek, Winooski VT) using an excitation of 540 nm and an emission of 600 nm. Data is analyzed using Prism software (GraphPad, San Diego, CA) to calculate IC50 values.

T1 sequence (P10398 with tags, fused parts or gaps Y301D/Y302D): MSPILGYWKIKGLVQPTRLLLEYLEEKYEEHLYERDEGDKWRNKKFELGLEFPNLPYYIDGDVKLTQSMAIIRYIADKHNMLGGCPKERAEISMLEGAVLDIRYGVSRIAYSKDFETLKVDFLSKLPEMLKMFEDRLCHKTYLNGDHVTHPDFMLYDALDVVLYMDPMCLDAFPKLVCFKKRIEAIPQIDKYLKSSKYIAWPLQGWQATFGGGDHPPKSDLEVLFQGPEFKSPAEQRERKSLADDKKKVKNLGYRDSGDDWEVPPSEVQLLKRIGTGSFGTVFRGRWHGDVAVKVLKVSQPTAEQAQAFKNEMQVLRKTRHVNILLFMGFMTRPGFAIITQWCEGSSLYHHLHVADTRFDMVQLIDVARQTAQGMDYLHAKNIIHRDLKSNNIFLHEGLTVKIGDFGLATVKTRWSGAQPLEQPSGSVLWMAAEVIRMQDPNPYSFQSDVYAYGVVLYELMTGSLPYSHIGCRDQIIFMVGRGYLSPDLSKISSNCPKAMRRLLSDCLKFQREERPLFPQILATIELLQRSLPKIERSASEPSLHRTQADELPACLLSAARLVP

In the case of `Cc1ccc(NC(=O)N2CC[C@@H](C(F)(F)F)C2)cc1-c1cccc(-c2cc(NC(=O)C3CC3)ncn2)c1` [Example 201], the negative-log IC50 (pIC50) on A-Raf kinase was under 6.00; at B-Raf kinase, at least 7.00; in the test on H2405 cells, 6.30 to 7.00; with WM3928 cells, 6.30 to 7.00.

In the case of `Cc1ncc(NC(=O)NCCC2(C)CC2)cc1-c1nccc(-c2ccnc(NC(=O)C3CC3)c2)n1` [Example 81], the negative logarithm of the IC50 (pIC50) at A-Raf kinase was under 6.00; on B-Raf kinase it was at least 7.00; with H2405 cells it was 6.30 to 7.00; in the test on WM3928 cells, 6.00 to 6.30.

Turning to `Cc1ccc(NC(=O)N2CC[C@H](C(F)(F)F)C2)cc1-c1cccc(-c2cc(NC(=O)C3CC3)ncn2)c1` [Example 200], the pIC50 on A-Raf kinase is under 6.00; on B-Raf kinase, at least 7.00; with H2405 cells it was 6.30 to 7.00; in the test on WM3928 cells, at least 7.00.

For `COC(=O)Nc1cc(-c2cc(-c3cc(NC(=O)N4CC[C@H](C(F)(F)F)C4)ccc3C)nc(C)n2)ccn1` [Example 223], the negative logarithm of the IC50 (pIC50) was under 6.00 at A-Raf kinase, at least 7.00 on B-Raf kinase, 5.00 to 6.00 in the test on H2405 cells and 5.00 to 6.00 in the test on WM3928 cells.

Turning to `Cc1ccc(NC(=O)N2CC[C@H](C(C)C)C2)cc1-c1cncc(-c2cc(NC(=O)C3CC3)ncn2)c1` [Example 221], the negative logarithm of the IC50 (pIC50) on A-Raf kinase was 6.30 to 7.00; on B-Raf kinase, at least 7.00; in the test with H2405 cells, at least 7.00; in the test on WM3928 cells it was at least 7.00.

For the molecule `Cc1ccc(NC(=O)N2CC[C@@H](C(F)(F)F)C2)cc1-c1cncc(-c2ccnc(NC(=O)C3CC3)c2)c1` [Example 196], the pIC50 at A-Raf kinase was under 6.00; on B-Raf kinase it was at least 7.00; in the test on H2405 cells, 6.00 to 6.30; with WM3928 cells it was 6.00 to 6.30.

On to `Cc1ccc(NC(=O)N2CCC3(CC3)C2)cc1-c1cncc(-c2cc(NC(=O)C3CC3)ncn2)c1` [Example 218], for which the pIC50 at A-Raf kinase is under 6.00; at B-Raf kinase, at least 7.00; in the test with H2405 cells, 6.30 to 7.00; with WM3928 cells it was 6.30 to 7.00.

For the molecule `COC(=O)Nc1cc(-c2cc(-c3cc(NC(=O)N4CCC(C(F)(F)F)C4)ccc3C)cc(OCCO)n2)ccn1` (centres unmarked) [Example 222], the pIC50 on A-Raf kinase is under 6.00; at B-Raf kinase it was at least 7.00; with H2405 cells it was 6.30 to 7.00; in the test with WM3928 cells it was at least 7.00.

Regarding `COC(=O)Nc1cc(-c2cncc(-c3cc(NC(=O)N4CCCC4)ccc3C)c2)ccn1` [Example 213], the negative-log IC50 (pIC50) on A-Raf kinase was under 6.00; at B-Raf kinase, under 6.00; in the test with H2405 cells it was 5.00 to 6.00; with WM3928 cells, 5.00 to 6.00.

In the case of `CC(=O)Nc1cc(-c2cc(-c3cc(NC(=O)NCCC4(C)CC4)c(F)cc3C)cc(OCCO)n2)ccn1` [Example 33], the negative logarithm of the IC50 (pIC50) on A-Raf kinase was 6.30 to 7.00; at B-Raf kinase, at least 7.00; with H2405 cells, at least 7.00; with WM3928 cells, at least 7.00.

For the molecule `Cc1cc(F)c(NC(=O)NCCC(C)(C)C#N)cc1-c1cccc(-c2cc(NC(=O)C3CC3)ncn2)c1` [Example 67], the pIC50 is 6.30 to 7.00 at A-Raf kinase, at least 7.00 at B-Raf kinase, 6.30 to 7.00 in the test on H2405 cells and 5.00 to 6.00 in the test on WM3928 cells.

Take `Cc1cc(F)c(NC(=O)NCCC2(C)CC2)cc1-c1cccc(-c2cc(NC(=O)C3CC3)ncn2)c1` [Example 65]: the values for the negative logarithm of the IC50 (pIC50) at A-Raf kinase, at B-Raf kinase and in the test with WM3928 cells were under 6.00, at least 7.00 and 6.30 to 7.00, respectively.

For the molecule `Cc1ccc(NC(=O)N2CCC(CC(F)(F)F)C2)cc1-c1cncc(-c2cc(N)ncn2)c1` (centres unmarked) [Example 207], the pIC50 is under 6.00 at A-Raf kinase, 6.30 to 7.00 on B-Raf kinase and 6.00 to 6.30 with WM3928 cells.

Turning to `Cc1cc(F)c(NC(=O)NCCC2(C)CC2)cc1-c1cccc(-c2ccnc(NC(=O)C3CC3)c2)c1` [Example 64], the negative logarithm of the IC50 (pIC50) on A-Raf kinase is under 6.00; at B-Raf kinase, at least 7.00; in the test with WM3928 cells, 6.30 to 7.00.

Take `COC(=O)Nc1cc(-c2cnnc(-c3cc(NC(=O)N4CCC(C(C)(C)O)C4)ccc3C)c2)ccn1` (centres unmarked) [Example 206]: the negative logarithm of the IC50 (pIC50) at A-Raf kinase was under 6.00; at B-Raf kinase, 6.00 to 6.30; with WM3928 cells it was 5.00 to 6.00.
